Results from paper PMC2662524 (Biochemistry, 2008).

Assays:
[1] = target: T1, cytochrome P450eryF (Saccharopolyspora erythraea, UniProt Q00441); assay: lifetime FRET from F7GA to heme; type: binding
[2] = target: T1, cytochrome P450eryF; assay: ligand-induced spin shift; type: binding

T1 sequence (Q00441 whole entry): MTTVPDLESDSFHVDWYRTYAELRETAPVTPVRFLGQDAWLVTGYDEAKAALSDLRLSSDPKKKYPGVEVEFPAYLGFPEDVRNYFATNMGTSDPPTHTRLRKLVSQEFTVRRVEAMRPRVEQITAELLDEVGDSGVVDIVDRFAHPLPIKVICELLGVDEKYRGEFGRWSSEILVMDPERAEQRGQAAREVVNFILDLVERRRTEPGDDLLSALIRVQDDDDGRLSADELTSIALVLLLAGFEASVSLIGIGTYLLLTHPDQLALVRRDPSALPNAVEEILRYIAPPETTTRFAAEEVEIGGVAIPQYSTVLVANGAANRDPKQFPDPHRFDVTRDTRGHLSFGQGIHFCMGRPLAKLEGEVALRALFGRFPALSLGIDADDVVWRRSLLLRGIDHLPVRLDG

Row | SMILES | Kd [1] | Kd [2]
1 | CCCCNc1ccc2c3c(cccc13)C(=O)N(CCCC)C2=O [F7GA, 2-butyl-6-(butylamino)-1H-benzo[de]isoquinoline-1,3(2H)-dione] | 140 ± 60 nM | –
2 | CCN(CC)c1ccc2nc3c4ccccc4c(=O)cc-3oc2c1 [Nile Red] | – | 3200 ± 200 nM
